From PubChem BioAssay (NCI) come the findings set out here.

Some test systems named below: OVCAR-4 ovarian; U251 CNS; OVCAR-8 ovarian; DU-145 prostate; OVCAR-5 ovarian; SK-MEL-28 melanoma; OVCAR-3 ovarian; NCI-H522 lung; K-562 leukemia; SR leukemia.
What all share (assay): NCI-60 cell line screen, 48 h

Several values for one entry are separate records, joined by “and”; a condition that tells them apart may be missing. Identical values can stand only once.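 Step 1: Grow cells in 96-well plates. Step 2: Expose to compound for 48 hours at 5 concentrations. Step 3: Interpolate endpoints linearly; if unreached, use highest concentration. GI50 is the concentration that inhibits growth by half. At the TGI there is no net growth.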

With `CN(C)CCCN1c2ccccc2Sc2ccc(Cl)cc21`, the GI50 with OVCAR-4 ovarian was 7.84 µM and 9.23 µM; in the assay on U251 CNS it was 2.62 µM and 3.46 µM; in the assay on OVCAR-8 ovarian it was 4.07 µM and 9.24 µM; in the assay on DU-145 prostate, 11.7 µM and 11.2 µM; in the assay with OVCAR-5 ovarian, 5.2 µM and 11.8 µM; in the assay on SK-MEL-28 melanoma, 2.03 µM and 3.65 µM. In addition, the GI50 in the assay with OVCAR-3 ovarian is 3.83 µM and 6.36 µM; in the assay on NCI-H522 lung, 2.74 µM and 2.79 µM; in the assay with K-562 leukemia it was 3.16 µM; in the assay on SR leukemia, 3.01 µM and 3.94 µM. For the same compound, the TGI in the assay on OVCAR-4 ovarian was 20.7 µM and 22.5 µM; in the assay with U251 CNS, 7.9 µM and 14.4 µM; in the assay with OVCAR-8 ovarian, 15.5 µM and 22.8 µM; in the assay with DU-145 prostate it was 24.1 µM and 23.4 µM; with OVCAR-5 ovarian it was 17.6 µM and 24.8 µM; with SK-MEL-28 melanoma it was 4.69 µM and 14.4 µM. Besides, the TGI with OVCAR-3 ovarian is 12.6 µM and 18.8 µM; with NCI-H522 lung, 7.16 µM and 8.9 µM; with K-562 leukemia it was 11.3 µM; in the assay with SR leukemia, 11 µM and 20.2 µM.

For the compound `Cc1n(Cc2ccc3ccccc3c2)c(Cl)c(Cl)[n+]1Cc1ccc2ccccc2c1`, the GI50 was 1.39 µM in the assay on OVCAR-4 ovarian; 1.79 µM with U251 CNS; 2.22 µM with DU-145 prostate; 1.65 µM with OVCAR-5 ovarian; 1.68 µM in the assay on SK-MEL-28 melanoma; 1.44 µM with OVCAR-3 ovarian. Also, the GI50 with NCI-H522 lung was 1.52 µM; in the assay with K-562 leukemia, 1.9 µM; with SR leukemia it was 1.87 µM. For the same compound, the TGI worked out at 2.76 µM in the assay on OVCAR-4 ovarian; 3.6 µM with U251 CNS; 5.26 µM in the assay on DU-145 prostate; 3.89 µM in the assay with OVCAR-5 ovarian; 3.18 µM in the assay with SK-MEL-28 melanoma; 2.87 µM in the assay on OVCAR-3 ovarian. For the same compound, the values for the TGI with NCI-H522 lung, in the assay on K-562 leukemia and in the assay on SR leukemia were 3.9 µM, 7.3 µM and 4.98 µM, respectively.

As to `COc1ccc(NC(=O)c2sc3nc4c(cc3c2N)CCCC4)cc1`, the GI50 in the assay with OVCAR-4 ovarian was 1.98 µM; in the assay with U251 CNS, 0.652 µM; with OVCAR-8 ovarian it was 2.38 µM; in the assay with DU-145 prostate, 0.982 µM; with OVCAR-5 ovarian, 7.28 µM; with SK-MEL-28 melanoma, 15.2 µM. Further, the GI50 in the assay on OVCAR-3 ovarian was 0.336 µM; in the assay with NCI-H522 lung, 0.234 µM; with K-562 leukemia, 0.309 µM; with SR leukemia, 0.3 µM. Further, the TGI in the assay with OVCAR-4 ovarian, in the assay with U251 CNS, in the assay with OVCAR-8 ovarian, with DU-145 prostate, in the assay on OVCAR-5 ovarian and with SK-MEL-28 melanoma was greater than 100 µM throughout. The TGI is 3.19 µM with OVCAR-3 ovarian, 0.772 µM in the assay with NCI-H522 lung, greater than 100 µM with K-562 leukemia and 16.3 µM in the assay with SR leukemia.

For the compound `O=C(O)Cn1ccnc1[N+](=O)[O-]`, the TGI with OVCAR-4 ovarian, with U251 CNS, with OVCAR-8 ovarian, in the assay with DU-145 prostate, with OVCAR-5 ovarian and in the assay with SK-MEL-28 melanoma was greater than 100 µM throughout. The TGI with OVCAR-3 ovarian, in the assay with NCI-H522 lung, in the assay with K-562 leukemia and in the assay with SR leukemia was greater than 100 µM throughout.

For the compound `O=C(Nc1ccc(Cl)cc1)Nc1ccccc1CNc1nc(Nc2ccc(OCCN3CCCC3)cc2)ncc1Cl`, the GI50 with OVCAR-4 ovarian was 0.862 µM; in the assay with OVCAR-8 ovarian, 1.25 µM; in the assay with DU-145 prostate it was 1.22 µM; in the assay on OVCAR-5 ovarian, 1.1 µM; in the assay with SK-MEL-28 melanoma, 0.855 µM; in the assay on OVCAR-3 ovarian it was 0.935 µM. Further, the GI50 was 1.18 µM in the assay with NCI-H522 lung, 1.16 µM with K-562 leukemia and 1.7 µM with SR leukemia. The TGI turned out to be 1.66 µM in the assay on OVCAR-4 ovarian; 3.31 µM with OVCAR-8 ovarian; 2.79 µM in the assay on DU-145 prostate; 2.7 µM with OVCAR-5 ovarian; 1.58 µM in the assay with SK-MEL-28 melanoma; 1.71 µM in the assay with OVCAR-3 ovarian. Also, the TGI came to 2.94 µM in the assay on NCI-H522 lung, 2.82 µM in the assay with K-562 leukemia and 50 µM with SR leukemia.

Regarding `CN(C)C(=O)SC1=C(c2c(Cl)cccc2Cl)C(=O)c2ccccc21`, the GI50 in the assay on OVCAR-4 ovarian was 4.24 µM; with U251 CNS, 8.33 µM; with OVCAR-8 ovarian it was 6.38 µM; with DU-145 prostate it was 2.4 µM; in the assay on OVCAR-5 ovarian it was 15.5 µM; in the assay on SK-MEL-28 melanoma, 3.16 µM. Further, the GI50 in the assay on OVCAR-3 ovarian is 1.96 µM; in the assay with NCI-H522 lung it was 1.74 µM; with K-562 leukemia, 2.98 µM; in the assay on SR leukemia it was 3.56 µM. Besides, the TGI was 10.8 µM in the assay on OVCAR-4 ovarian; 23 µM in the assay on U251 CNS; 17.1 µM in the assay on OVCAR-8 ovarian; 5.61 µM in the assay on DU-145 prostate; 30.8 µM in the assay with OVCAR-5 ovarian; 8.89 µM with SK-MEL-28 melanoma. The TGI was 3.8 µM with OVCAR-3 ovarian, 4.05 µM in the assay on NCI-H522 lung, 14.8 µM in the assay with K-562 leukemia and 88.9 µM in the assay on SR leukemia.

With `Nc1ncnc2c1c(-c1ccc(Oc3ccccc3)cc1)nn2C[C@@H]1SSC[C@@H]1O`, the GI50 is 1.33 µM in the assay on OVCAR-4 ovarian; 0.853 µM in the assay on U251 CNS; 0.36 µM in the assay with OVCAR-8 ovarian; 1.36 µM in the assay with DU-145 prostate; 2.16 µM with OVCAR-5 ovarian; 0.0824 µM with SK-MEL-28 melanoma. Also, the GI50 in the assay with OVCAR-3 ovarian was 0.277 µM; with NCI-H522 lung it was 2.15 µM; in the assay with K-562 leukemia, 0.295 µM; in the assay with SR leukemia, 0.0385 µM. The TGI in the assay with OVCAR-4 ovarian was 14 µM; in the assay on U251 CNS it was 8.71 µM; in the assay with OVCAR-8 ovarian, 12.2 µM; in the assay on DU-145 prostate it was 4.02 µM; in the assay on OVCAR-5 ovarian it was 26.2 µM; with SK-MEL-28 melanoma it was 0.484 µM. In addition, the TGI is 1.04 µM in the assay on OVCAR-3 ovarian, 6.98 µM with NCI-H522 lung, 3.21 µM in the assay with K-562 leukemia and 0.27 µM in the assay on SR leukemia.

Take `c1ccc(CC(NCCNC(Cc2ccccc2)c2ccccc2)c2ccccc2)cc1` (centres undefined): the GI50 in the assay with OVCAR-4 ovarian was 0.415 µM; in the assay with U251 CNS it was 0.406 µM; in the assay on DU-145 prostate, 0.395 µM; in the assay with OVCAR-5 ovarian, 1.24 µM; with SK-MEL-28 melanoma, 1.22 µM; in the assay with OVCAR-3 ovarian it was 0.398 µM. The GI50 with NCI-H522 lung was 0.32 µM; with K-562 leukemia, 0.307 µM; in the assay on SR leukemia, 0.243 µM. Besides, the TGI was determined as 2.02 µM with OVCAR-4 ovarian; 1.43 µM in the assay with U251 CNS; 1.87 µM with DU-145 prostate; 3.57 µM in the assay on OVCAR-5 ovarian; 2.8 µM with SK-MEL-28 melanoma; 1.46 µM in the assay with OVCAR-3 ovarian. The TGI in the assay with NCI-H522 lung came out at 1.06 µM; in the assay with K-562 leukemia it was 0.89 µM; in the assay with SR leukemia it was 0.587 µM.
